Source: patent publication US5561122A, “Combretastatin A-4 prodrug” (Arizona Board of Regents acting on behalf of Arizona State …, priority 1994, dated 1996)
Like-named read-outs stand apart in the source and are kept apart here.

Key:
[1] = test system: NCI 60 cell line panel (human tumor cell lines); assay: NCI 60 cell line full-panel screen (growth inhibition) with COMPARE analysis; type: cell-based; conditions: for GI50: Homo sapiens, 60 cell, read-out: mean panel GI50 concentration
Excerpt: The following measures are used to express drug activity by giving the drug dose which reduces cell growth to a specified percentage of growth:
ED50 (P388) and GI50 (HTCL) are the drug doses needed to reduce the percent growth to 50%. There is no mathematical difference between ED50 and GI50, which are both calculated using the same formula. The only difference is historical usage.
Total Growth Inhibition ("TGI") is the drug dose needed to yield zero percent growth, i.e., just as many cells at the end of the experiment as were present in the beginning. Whether just as many cells were killed as were produced (steady state), or no growth occurred (total inhibition), cannot be distinguished.
Lethal Concentration 50% ("LC50 ") is the drug concentration which reduces growth to -50%, i.e., removes half of the cells originally present at the beginning of the experiment.
Each drug is tested at five (5) doses: 100 - 10 - 1 - 0.1 -0.01 μg/ml. Percent Growths are calculated for each dose. The two (or three) doses with growth values above, below, (or near to) 50% growth are used to calculate the ED50 /GI50 using a linear regression formula. The log of the dose is used during the regression computation. If no dose yields a growth value under 50%, the results are expressed as: ED50 >(highest dose). If no dose yields growth higher than 50% growth, then ED50 <(lowest dose). Similar calculations are performed for the TGI at 0% growth, and at -50% growth for the LC50.
At the start of an experiment, cells from the in vitro cell cultures are inoculated into the appropriate tubes or microtiter plates. One set of control tubes/plates is immediately counted to determine the number of cells at the start of the experiment. This is the "baseline count" or "Tzero reading". At the end of the experiment (48 hours later) a second set of control tubes/plates is analyzed to determine the "Control Growth" value. The growth (or death) of cells relative to the initial quantity of cells is used to define the "Percent of Growth".
For further information about the testing protocols and procedures see Anne Monks et al., "Feasibility of a High-Flux Anticancer Drug Screen Using a Diverse Panel of Cultured Human Tumor Cell Lines", 83 J. Nat. Cancer Inst. No. 11, pp. 757-66 (5 Jun. 1991) and […], "Status of the NCI Preclinical Antitumor Drug Discovery Screen" 3 Princ & Practice of Oncology Updates No. 10, pp. 1-12 (October 1989).
By definition a pro-drug is a precursor which will undergo metabolic activation in vivo to the active drug. […] Combretastatin A-4 (1a) and prodrug (1h) were then comparatively evaluated against the full-panel NCI screen (M. R. Boyd, "Status of the NCI Preclinical Antitumor Drug Discovery Screen: Implications for Selection of New Agents for Clinical trial," 3 Cancer: Principles and Practice of Oncology Updates No. 10, pp1-12 (1989) and M. R. Boyd et al. "The Future of New Drug Development. Section I. Introduction to Cancer Therapy," Current Therapy in Oncology. Philadelphia: Decker (1993)). […]

tubulin = conditions: Hamel et al., 1989; cited from earlier work
cancer cell = conditions: Von Hoff et al., 1993; cited from earlier work
[2] = stability / reaction with water; type: physicochemical

COc1ccc(/C=C\c2cc(OC)c(OC)c(OC)c2)cc1O [Compound 1a, combretastatin A-4]
GI50 ([1]; full-panel NCI screen, mean over panel, quadruplicate, 48 hours): 6.61 nM | tubulin assembly inhibition (tubulin): potent | cancer cell growth inhibition (cancer cell): potent

COc1ccc(/C=C\c2cc(OC)c(OC)c(OC)c2)cc1O [Compound 1b]
reaction with water [2]: regenerated combretastatin A-4

COc1ccc(/C=C\c2cc(OC)c(OC)c(OC)c2)cc1O [Compound 1c]
reaction with water [2]: regenerated combretastatin A-4

COc1ccc(/C=C\c2cc(OC)c(OC)c(OC)c2)cc1OC(=O)CCC(=O)O [Compound 1d]
reaction with water [2]: regenerated combretastatin A-4 | aqueous solubility (in words) (water solubility): essentially insoluble

COc1ccc(/C=C\c2cc(OC)c(OC)c(OC)c2)cc1OP(=O)(O)O [Compound 1f, Ammonium hydrogen combretastatin A-4 3-O Phosphate]
aqueous solubility (in words) (water solubility): most soluble

COc1ccc(/C=C\c2cc(OC)c(OC)c(OC)c2)cc1OP(=O)(O)O [Compound 1g, Dipotassium combretastatin A-4 3-O-phosphate]
stability (in words) [2]: most stable

COc1ccc(/C=C\c2cc(OC)c(OC)c(OC)c2)cc1OP(=O)(O)O [Compound 1h, Disodium combretastatin A-4 3-O-Phosphate]
GI50 ([1]; 48 h): 6.89 nM | Pearson correlation coefficient for the differential cytotoxicity profiles (TGI-COMPARE) ([1]; combretastatin A-4 (1a) vs its prodrug (1h)): 0.91 | cell growth inhibitory activity ([1]; compared with combretastatin (1a)): comparable | in vitro activity levels in the NCI 60 cell line panel ([1]; compared with combretastatin A-4, activity level and COMPARE algorithm): reasonably similar
